Experimental data as given in ChEMBL document CHEMBL3301361, “Experimental in vitro DMPK and physicochemical data on a set of publicly disclosed compounds”.

Test: physchem
Conditions: octan-1-ol/water, pH 7.4

| SMILES | logD |
| --- | --- |
| Cc1cc(C)n(-c2cccc(Cl)c2C#N)n1 | 3 |
| CC(C)Oc1cccc(CC(=O)N2CCC[C@](CC[N+]34CCC(c5ccccc5)(CC3)CC4)(c3ccc(Cl)c(Cl)c3)C2)c1 [NOLPITANTIUM] | 1.23 |
| Cc1ccc(CN2[C@@H]3CC[C@H]2C[C@@H](Oc2cccc(C(N)=O)c2)C3)s1 | 2.39 |
| CNC1=Nc2ncccc2C(c2ncco2)=NC1c1cccs1 (stereo unspecified) | 1.14 |
| CNC1=Nc2ncccc2C(c2ccns2)=NC1c1cccs1 (stereo unspecified) | 2.15 |
| CCOC(=O)Nc1cccc([C@@H](c2ccc(C(=O)N(C)CC)cc2)N2CCN(Cc3c[nH]c(C)n3)CC2)c1 | 2.11 |
| CCCCCCCCCC(=O)N[C@@H](Cc1c[nH]c2ccccc12)C(=O)N[C@H](CC(N)=O)C(=O)N[C@@H](CC(=O)O)C(=O)N[C@@H]1C(=O)NCC(=O)N[C@@H](CCCN)C(=O)N[C@@H](CC(=O)O)C(=O)N[C@H](C)C(=O)N[C@@H](CC(=O)O)C(=O)NCC(=O)N[C@H](CO)C(=O)N[C@@H]([C@H](C)CC(=O)O)C(=O)N[C@@H](CC(=O)c2ccccc2N)C(=O)O[C@@H]1C | -0.94 |
| CN1Cc2ccccc2C(c2ccc(Cl)cc2)C1 (stereo unspecified) | 3.64 |
| CCOc1ccc(-n2c(CC)nc3ccccc3c2=O)cc1 | 3.27 |
| O=C(Oc1ccc(Br)cc1)N1CCN2CCC1CC2 [SSR180711] | 1.58 |
| NC(=O)c1cccc(O[C@@H]2C[C@H]3CC[C@@H](C2)N3Cc2ccccc2)c1 | 1.76 |
| O=C(N[C@@H]1CN2CCC1CC2)c1ccc(-c2ccccc2)s1 | 1.77 |

Same assay, conditions: octan-1-ol/water, pH 7.4, LogD7.4

| SMILES | logD |
| --- | --- |
| O=C(O)c1ccc2c(c1)nc(Nc1cccc(Cl)c1)c1ccncc12 [SILMITASERTIB] | 1.29 |
| CN(C)CCOC(C)(c1ccccc1)c1ccccn1 (stereo unspecified) [DOXYLAMINE] | -0.2 |
| CCCNc1nc(N2CCC[C@@H](CC(=O)O)C2)ccc1C(=O)NC1CCCCC1 | 2.33 |
| C[C@@H]1CN(C(=O)OC(C)(C)C)CCN1c1ncc(OCc2ccc(S(C)(=O)=O)cn2)cn1 | 3 |
| Nc1nc(N)nc(-c2cccc(C(F)(F)F)c2)n1 | 2.4 |
| COC[C@@H](c1ccc(C(F)(F)F)cc1)N1CCN(C2(C)CCN(C(=O)c3c(C)ncnc3C)CC2)C[C@@H]1C [VICRIVIROC] | 2.7 |
| Cc1[nH]c2nc(NCc3cccc(Cl)c3)nn2c(=O)c1Cc1ccccc1 | 3.6 |
| Cc1cc(NC(=O)Nc2ccc(Cl)cc2)n(-c2ccccc2)n1 | 4.15 |
| CC[S+]([O-])c1ncccc1C1(O)CCN(CC23CC(c4ccccc42)c2ccccc23)CC1 (stereo unspecified) | 2 |
| CC(C)[N+](C)(CCOC(=O)C1c2ccccc2Oc2ccccc21)C(C)C [PROPANTHELINE] | 0.2 |
| FC(F)(F)c1cc(COCC(c2cccc(Cl)c2)N2CCNCC2)cc(C(F)(F)F)c1 (stereo unspecified) | 4.2 |
| Fc1cccc(-c2cncc(CNCC3CC3)n2)c1F | 1.82 |
| COc1cc(F)ccc1-c1cncc(CNC2CCC2)n1 | 2.23 |
| Oc1ccc(-c2csc(-c3ccc(O)cc3)n2)cc1 | 3.7 |
| N[C@@H](Cc1c[nH]c2ccccc12)C(=O)O [TRYPTOPHAN] | -1.08 |
| NCC(O)(c1ccccc1)c1ccccc1 | 0.9 |
| CC[C@H](NC(=O)c1c([S+](C)[O-])c(-c2cccs2)nc2ccccc12)c1ccccc1 (stereo partly specified) | 3.56 |
| CCC(c1nc2ccsc2c(=O)n1Cc1ccccc1)N(CCCN)C(=O)c1ccc(C(C)C)cc1 (stereo unspecified) | 2.72 |
| NS(=O)(=O)c1cc(Cl)c(Cl)c(S(N)(=O)=O)c1 [DICHLORPHENAMIDE] | 0.92 |
| CCn1c(=O)c2c(-c3cc(C#N)cn3C)n(Cc3ccnc4ccc(Cl)cc34)nc2n(CC2CC2)c1=O | 4.13 |
| COc1cc(F)ccc1-c1cncc(CNC[C@@H]2CCCO2)n1 | 2 |
| CC(C)Cn1c(=O)n(C)c(=O)c2c(C(=O)N3CC(C)(O)C3)c(Cc3ccccc3C(F)(F)F)sc21 | 3.18 |
| Cc1cc(NCc2ccccc2)nc2ccccc12 | 3.69 |

| SMILES | logD |
| --- | --- |
| COCCC(=O)N(C)c1ccc(Nc2ncc3cc(-c4ccncc4)ccc3n2)cc1 | 3.23 |
| CNc1cc(C(=O)Nc2ccc(N3CCOCC3)cc2)nc2c(N3CCN(C)CC3)cc(OC)cc12 | 2.93 |
| CCNc1ccc(-c2ccccc2)n(CC(=O)NC(C(=O)C(F)(F)F)C(C)C)c1=O (stereo unspecified) | 2.37 |
| CC[C@H](NC(=O)c1c([S+](C)[O-])c(-c2cccc(F)c2)nc2ccccc12)c1ccccc1 (stereo partly specified) | 3.14 |
| O=c1c(O)cccc2cc(O)c(O)c(O)c12 [PURPUROGALLIN] | 2.03 |
| CS(=O)(=O)c1ccc(C(CCNC(=O)c2ccc(C#N)cc2)c2ccc(F)cc2)cc1 (stereo unspecified) | 2.9 |
| CC(=O)Nc1ccccn1 | 0.5 |
| c1ccc(-c2n[nH]c(-c3ccncc3)n2)nc1 | 1.48 |
| Cc1c(CCC(=O)O)c(=O)oc2c(C)c(O)ccc12 | -0.3 |
| Fc1ccc(C(COCc2cc(C(F)(F)F)cc(C(F)(F)F)c2)N2CCNCC2)cc1 (stereo unspecified) | 3 |
| Nc1ccnc(-c2cccnc2)n1 | 0.44 |
| O=C(NCC12CC3CC(CC(C3)C1)C2)c1cccc(Cl)c1Cl | 4.37 |
| N#Cc1ccc(-c2csc(Nc3ccc(O)cc3)n2)cc1 | 4.1 |
| O=c1oc2ccccc2cc1-c1ccc(O)cc1 | 3 |
| OCC[C@@]1(c2cc3ccccc3o2)CCCNC1 | 0.06 |
| Cc1cc(COC(=O)Nc2ccc(-c3ccccc3)n(CC(=O)NC(C(=O)C(F)(F)F)C(C)C)c2=O)cc(C)n1 (stereo unspecified) | 2.38 |
| CC1CC(=O)Nc2ccccc2N1 (stereo unspecified) | 0.56 |
| CC(=O)[C@H]1CC[C@H]2[C@@H]3C[C@H](C)C4=CC(=O)CC[C@]4(C)[C@H]3[C@@H](O)C[C@]12C [MEDRYSONE] | 3.25 |
| CCN(CCCOCCOCCc1ccccc1)CCc1ccc(O)c2nc(O)sc12 | 2.45 |
| CNc1cnc(-c2ccc(F)cc2)n(CC(=O)NC(C(=O)C(F)(F)F)C(C)C)c1=O (stereo unspecified) | 1.86 |
| CC[C@H]1OC(=O)[C@H](C)[C@@H](O[C@H]2C[C@@](C)(OC)[C@@H](O)[C@H](C)O2)[C@H](C)[C@@H](O[C@@H]2O[C@H](C)C[C@H](N(C)C)[C@H]2O)[C@](C)(O)C[C@@H](C)/C(=N\OCOCCOC)[C@H](C)[C@@H](O)[C@]1(C)O [ROXITHROMYCIN] | 1.8 |
| COc1cc2ncc(C(N)=O)c(Nc3ccccc3Cl)c2cc1OC | 2.89 |
| CC(c1cc2ccccc2o1)n1[nH]c(=O)c2[nH]c3cc(Cl)ccc3c(=O)c2c1=O (stereo unspecified) | 2.1 |

| SMILES | logD |
| --- | --- |
| O=S1NC(Cc2ccc3ccccc3c2)=NO1 (stereo unspecified) | 1.85 |
| COc1cc2ncnc(NCc3cccc(C)c3)c2cc1OC | 3.5 |
| CC(C)C[C@H](CO)Nc1nc(SCc2ccncc2)nc2nc(N)sc12 | 2.9 |
| O=c1[nH][nH]c(=O)c2c(O)c3c(Cl)cc(Cl)cc3nc12 | 0.89 |
| O=C(Cc1ccccc1)c1ccc(O)cc1O | 3.09 |
| COC(=O)CCC(=O)Nc1ccc2c(c1)-c1ccccc1C(=O)C2=O | 2.72 |
| CC1(C)Cc2c(-c3ccccc3)c(-c3ccc(Cl)cc3)c(CC(=O)O)n2C1 [LICOFELONE] | 3.07 |
| C[C@H](NC(=O)C1(N)CCN(c2ncnc3[nH]ccc23)CC1)c1ccc(Cl)cc1 | 2.67 |
| COc1ccc(OC)c(-c2c(F)ccc3c(N)c(C(=O)NC4CC4)nnc23)c1 | 3.47 |
| O=C(Nc1ccc(F)cc1)c1cccnc1Oc1ccccc1 | 3.19 |
| Cn1c(CN2CCC(c3ccccc3)CC2)nc2ccccc21 | 3.6 |
| CCCSc1nc(NC[C@H]2CC[C@H](C(=O)O)CC2)ccc1C(=O)NC1CCCCC1 | 2.61 |
| COC(=O)c1nc2c(N[C@H](C)CO)nc(SCc3cccc(F)c3F)nc2[nH]c1=O | 2.49 |
| O=C(COc1ccccc1O)NC1CCCC1 | 2.31 |
| N=C(N)NCCC[C@H](NC(=O)COCC(c1ccccc1)c1ccccc1)C(=O)O | 0.18 |
| CCCSc1ncccc1C(=O)N(C)C1CCOCC1 | 1.63 |
| COc1ccnc(C[S+]([O-])c2nc3ccc(OC(F)F)cc3[nH]2)c1OC (stereo unspecified) [PANTOPRAZOLE] | 2 |
| N#Cc1cccc(OC[C@@H](O)CNC2CCN(Cc3ccc(Cl)c(Cl)c3)CC2)c1 | 3.09 |
| COCCN1CCN(CC(=O)Nc2ccc(-c3cccn4c(=O)cc(N5CCOCC5)nc34)c3sc4ccccc4c23)CC1 | 3.2 |
| O=c1[nH]c(-c2ccccc2)nc2cc(Cl)ccc12 | 3.31 |
| Cn1cc(C#N)cc1-c1c2c(=O)n(C)c(=O)n(CC3CC3)c2nn1Cc1ccnc2ccc(Cl)cc12 | 3.67 |
| CC[C@H](NC(=O)c1c([S+](C)[O-])c(-c2ccccc2)nc2cc(F)ccc12)c1ccccc1 (stereo partly specified) | 3.62 |
| CCC(c1nc2ccsc2c(=O)n1Cc1cccnc1)N(CCCN)C(=O)c1ccc(C)cc1 (stereo unspecified) | 0.01 |

| SMILES | logD |
| --- | --- |
| O=c1oc2ccc(O)cc2cc1-c1ccccc1 | 3.12 |
| O=C(COc1ccc(SCCCCCc2ccccc2)cc1)COc1ccc(C(=O)O)cc1 | 3.63 |
| CC(=N)NCc1ccccc1 | -0.28 |
| CC(=O)Nc1ccc(CC(=O)N(C)C2CCN(CCC(c3ccccc3)c3ccccc3)CC2)cc1 | 2.9 |
| CNc1ccc2ncc(-c3cccc(O)c3)n2n1 | 2.99 |
| CC(C)NNC(=O)c1ccncc1 [IPRONIAZID] | 0.33 |
| CN(C)CCCNS(=O)(=O)c1ccc(Nc2nccc(-c3cnc4ccccn34)n2)cc1 | 1.9 |
| O=C(C(=O)c1cc(Br)ccc1O)c1cc(Br)ccc1O | 3.85 |
| COc1cc2c(N3CCN(C(=O)Nc4ccc(OC(C)C)cc4)CC3)ncnc2cc1OCCCN1CCCCC1 [TANDUTINIB] | 2.6 |
| Cc1oc2cc(O)ccc2c(=O)c1-c1ccccc1 | 2.95 |
| Cc1ccc(S(=O)(=O)N2CCN(C(=O)c3ccco3)CC2)cc1 | 2.17 |
| CCOc1ccccc1-c1ccc(-c2nc3ccc(F)cc3c(C(=O)O)c2C)cc1 | 1.18 |
| Cc1[nH]c2ccccc2c1CCNCc1ccc(/C=C/C(=O)NO)cc1 [PANOBINOSTAT] | 1.1 |
| O=C(N[C@@H](Cc1ccc(OCCNc2ccccn2)cc1)C(=O)O)c1c(Cl)cccc1Cl | -0.48 |
| CC(=O)N[C@@H]1CC2(CCN(Cc3ccc4[nH]c5ccccc5c4c3)CC2)c2ccccc21 | 2.96 |
| CC(=O)NC1CC(C)N(C(=O)c2ccccc2)c2ccccc21 (stereo unspecified) | 2 |
| c1ccc(OCC2CNCCO2)cc1 (stereo unspecified) | 0.2 |
| COc1cc(C(=O)NS(=O)(=O)c2ccccc2)ccc1Cn1ncc2ccc(NC(=O)OC3CCCC3)cc21 [ICI-198615] | 1.8 |
| COc1cc(OC)cc(-c2ccc(NC(=O)OCc3ccccc3)c(=O)n2CC(=O)NC(C(=O)C(F)(F)F)C(C)C)c1 (stereo unspecified) | 2.26 |
| COc1cc2c(Nc3c(Cl)ccc4c3OCO4)ncnc2cc1OCCCN1CCCCC1 | 2.05 |
